Results on five compounds are retold here after patent US11266655B2, “Methods and compositions for treating urea cycle disorders” (Camp4 Therapeutics Corporation, priority 2019, dated 2022).

Assay [1] relates to CPS1. In words: HSP90 or HSP70 inhibitors in primary human hepatocytes, CPS1 mRNA. The class given is cell-based. To be noted: hepatocytes from Donor B, normalized to B2M. As for the experimental part: (§1) Additional small molecules that inhibit HSP90 or HSP70 were tested in primary human hepatocytes as described in Example 2. HSP90 or HSP70 inhibitors were tested in triplicate at 0.3 μM and 3 μM. The results are shown as the fold change (mRNA FC) in the mRNA levels of OTC and CPS1 genes after treatment compared to an untreated control (DMSO) and the standard deviation (SD). In addition, a dose titration experiment was performed with selected HSP90 inhibitors. Hepatocytes were incubated with increasing concentrations of HSP90 inhibitors and the changes in OTC and CPS1 expression quantified as previously described.
(§2) HSP90 and HSP70 inhibitors were compared to confirm the role of HSP90 in modulating OTC and CPS1 expression. Hepatocytes from Donor B were incubated with various HSP90 inhibitors or an HSP70 inhibitor, Pifithrin-μ, and then harvested for mRNA quantification. OTC and CPS1 mRNA levels were normalized to B2M.

In assay [2] the test system is OTC. Description: HSP90 or HSP70 inhibitors in primary human hepatocytes, OTC mRNA. The note with it: hepatocytes from Donor B, normalized to B2M. It counts as cell-based. As to the method:
as §1, §2

Assay [3] concerns OTC. In words: OTC expression modulated by compounds, OTC/GeoMean of housekeeping genes, DMSO = 1 (Table 3A). The note with it: 10 uM final concentration. It counts as cell-based, human.
A further assay deals with SLC25A15. In words: RNA-seq of compound-treated primary human hepatocytes, SLC25A15 expression. It counts as cell-based. To be noted: primary human hepatocytes, triplicate (Table 24, FIG. 16A-B).
In another assay the test system is SLC25A13. In words: RNA-seq of compound-treated primary human hepatocytes, SLC25A13 expression. The class given is cell-based. To be noted: primary human hepatocytes, triplicate (Table 23, FIG. 15).
The test system of a further assay is ASS1. In words: RNA-seq of compound-treated primary human hepatocytes, ASS1 expression. It counts as cell-based. To be noted: primary human hepatocytes, triplicate (Table 15, FIG. 7).
Assay [4] has as its system CPS1. In words: RNA-seq of compound-treated primary human hepatocytes, CPS1 expression. The note with it: 3 μM, primary human hepatocytes, triplicate (Table 19, FIG. 11). The class given is cell-based.

Regarding `CO[C@H]1/C=C\C=C(/C)C(=O)NC2=CC(=O)C(NCCN(C)C)=C(C[C@@H](C)C[C@H](OC)[C@H](O)[C@@H](C)/C=C(\C)[C@@H]1OC(N)=O)C2=O` [Alvespimycin], the “CPS1 Expression mRNA FC” value in the assay on CPS1 [1] (0.3 uM) was found to be 2.33; in the assay with CPS1 [1] (3 uM) it was 1.94. Besides, the “OTC Expression mRNA FC” value in the assay with OTC [2] (0.3 uM) is 3.03; with OTC [2] (3 uM), 1.57.

In the case of `CC1(C)CC[C@]2(C(=O)O)CC[C@]3(C)[C@H](C(=O)C=C4[C@@]5(C)C=C(C#N)C(=O)C(C)(C)[C@@H]5CC[C@]43C)[C@@H]2C1` [Bardoxolone], the “Max Value (OTC/GeoMean of HKs; DMSO = 1)” value in the assay on OTC [3] turned out to be 2.76.

Consider `C=CCNC1=C2C[C@@H](C)C[C@H](OC)[C@H](O)[C@@H](C)/C=C(\C)[C@H](OC(N)=O)[C@@H](OC)/C=C\C=C(/C)C(=O)NC(=CC1=O)C2=O` [17-AAG (Tanespimycin), Tanespimycin], for which the “Relative SLC25A15 level vs Untreated (±Standard Deviation)” value was 1.48 ± 0.01 with SLC25A15 (0.3 μM), 1.40 ± 0.05 in the assay on SLC25A15 (1 μM), 1.51 ± 0.09 with SLC25A15 (3 μM) and 1.46 ± 0.14 in the assay with SLC25A15 (10 μM). The “Relative SLC25A13 level vs Untreated (±Standard Deviation)” value is 1.48 ± 0.01 in the assay with SLC25A13 (0.3 μM), 1.40 ± 0.05 in the assay on SLC25A13 (1 μM), 1.51 ± 0.09 in the assay on SLC25A13 (3 μM) and 1.46 ± 0.14 in the assay on SLC25A13 (10 μM). In addition, the results for the “Relative ASS1 level vs Untreated (±Standard Deviation)” value in the assay with ASS1 (0.3 μM) and in the assay with ASS1 (1 μM) were 1.37 ± 0.11 and 1.46 ± 0.07, respectively. The “CPS1 Expression mRNA FC” value came to 1.79 in the assay with CPS1 [1] (0.3 uM) and 2.51 with CPS1 [1] (3 uM). In addition, the “OTC Expression mRNA FC” value in the assay on OTC [2] (0.3 uM) came to 5.01; in the assay on OTC [2] (3 uM) it was 2.84.

Turning to `Cc1cc(Nc2cc(CN3CCOCC3)c3nc(C)c(Cc4ccc(Cl)cc4F)n3n2)n[nH]1` [LY2784544], in the assay with OTC [3], the “Max Value (OTC/GeoMean of HKs; DMSO = 1)” value was determined as 2.78.

Regarding `CC1(C)CC(=O)c2c(C(F)(F)F)nn(-c3ccc(C(N)=O)c(N[C@H]4CC[C@H](OC(=O)CN)CC4)c3)c2C1` [PF-04929113], the “Relative CPS1 level vs Untreated (±Standard Deviation)” value with CPS1 [4] was 1.38 ± 0.13. Besides, the “CPS1 Expression mRNA FC” value was determined as 1.62 in the assay on CPS1 [1] (0.3 uM) and 2.09 with CPS1 [1] (3 uM). The “OTC Expression mRNA FC” value with OTC [2] (0.3 uM) was 1.77; in the assay with OTC [2] (3 uM), 4.28.
